# Where two headings read alike, the source gives them in different places.
# Tests used:
# Format in all cases: cell-based
# [1] = test system: Enterococcus faecium ATCC 19434; assay: MIC, E. faecium ATCC 19434; settings: ATCC19434, Table 2
# [2] = test system: human hepatic cell line (HepG2 ATCC HB-8065); assay: Human cell viability assay (CellTiter-Glo), HepG2; settings: HepG2, 24 h incubation, tested over 1-128 μg/mL, read-out: IC50 values against HepG2
# Procedure: Compounds are assessed for potential non-specific cytotoxic effects against a human hepatic cell line (HepG2 ATCC HB-8065). HepG2 cells are seeded at 20,000 cells/well in 96-well microtitre plates in minimal essential medium (MEM) supplemented with a final concentration of 10% FBS and 1 mM sodium pyruvate. After 24 h compound dilutions are prepared in Dulbecco's minimum essential media (DMEM) supplemented with final concentrations of 0.001% FBS, 0.3% bovine albumin and 0.02% HEPES and added to cells. Compounds are tested in two-fold serial dilutions over a final concentration range of 1-128 μg/mL in a final DMSO concentration of 1% vol/vol. Chlorpromazine is used as a positive control. Cells are incubated with compound at 37° C. and 5% CO2 for a further 24 h, after which time the CellTiter-Glo reagent (Promega) is added. Luminescence is measured on a BMG Omega plate reader. Data are analysed using GraphPad Prism software to determine the concentration of compound that inhibits cell viability by fifty percent (IC50).
# S. aureus NRS1 MRSA = assay: MIC, S. aureus NRS1; settings: Staphylococcus aureus; Table 2; read-out: MIC S. aureus NRS1 MRSA AMG & TET resistant
# [3] = test system: S. epidermidis NRS101 MRSE; assay: MIC, S. epidermidis NRS101; settings: Staphylococcus epidermidis; Table 2; read-out: MIC S. epidermidis NRS101 MRSE AMG, ERY resistant
# [4] = test system: Staphylococcus aureus ATCC 29213; assay: MIC, broth microdilution, S. aureus ATCC 29213
# [5] = test system: S. aureus (MRSA) ATCC 43300; assay: MIC, S. aureus ATCC 43300; settings: Staphylococcus aureus; Table 2; read-out: MIC S. aureus (MRSA) ATCC 43300 Heterogeneous MRSA strain
# [6] = test system: S. aureus VRS1 MRSA VAN resistant; assay: MIC, S. aureus VRS1; settings: Staphylococcus aureus, Table 2
# [7] = test system: S. aureus NRS127 MRSA LZD resistant; assay: MIC, S. aureus NRS127; settings: Staphylococcus aureus; Table 2
# [8] = test system: Haemophilus influenzae ATCC 49247; assay: MIC, H. influenzae ATCC 49247; settings: ATCC49247, Table 4
# [9] = test system: Escherichia coli ATCC 25922; assay: MIC, broth microdilution, E. coli ATCC 25922; settings: ATCC25922, Table 1, wild type strain
# [10] = test system: S. aureus NRS482 MRSA FQ resistant; assay: MIC, S. aureus NRS482; settings: Staphylococcus aureus; Table 2
# [11] = test system: S. aureus SACPX1-SP25 MSSA - FQ resistant; assay: microbe, parasite or virus in culture; settings: Staphylococcus aureus, ATCC 29213 / MSSA, read-out: MIC S. aureus SACPX1-SP25 MSSA - FQ resistant (isogenic mutant of ATCC 29213)
# [12] = ATCC29213, Table 1, wild type strain, read-out: MIC S. aureus ATCC 29213
# [13] = ATCC 29213 / MSSA, Table 2, read-out: MIC S. aureus (MSSA) ATCC 29213 CLSI control strain
Structure (SMILES),MIC [1],MIC (S. aureus NRS1 MRSA),MIC [3],"MIC [4, 12]","MIC [4, 13]",MIC [5],MIC [6],MIC [7],MIC [8],MIC [9],MIC [10],IC50 [2],MIC [11]
"Cc1nc2c(=O)n(C3CC3)c3c(C)c(-c4cc(F)c(N)cc4F)ccc3c2o1 [Compound 4, 7-(4-amino-2,5-difluoro-phenyl)-5-cyclopropyl-2,6-dimethyl-oxazolo[4,5-c]quinolin-4-one]",> 100 µg/mL,1 to 10 µg/mL,–,< 1 µg/mL,< 1 µg/mL,< 1 µg/mL,< 1 µg/mL,< 1 µg/mL,< 1 µg/mL,1 to 10 µg/mL,< 1 µg/mL,10 to 100 µg/mL,< 1 µg/mL
"Cc1c(-c2cnc(N)nc2)ccc2c3ocnc3c(=O)n(C3CC3)c12 [Compound 14, 7-(2-aminopyrimidin-5-yl)-5-cyclopropyl-6-methyl-oxazolo[4,5-c]quinolin-4-one]",> 100 µg/mL,1 to 10 µg/mL,–,< 1 µg/mL,< 1 µg/mL,1 to 10 µg/mL,–,–,1 to 10 µg/mL,10 to 100 µg/mL,1 to 10 µg/mL,10 to 100 µg/mL,1 to 10 µg/mL
"NC1CCN(c2nc3c(cc2F)c2ocnc2c(=O)n3C2CC2)C1 (stereo not drawn) [Compound 80, 7-(3-aminopyrrolidin-1-yl)-5-cyclopropyl-8-fluoro-oxazolo[4,5-c][1,8]naphthyridin-4-one]",10 to 100 µg/mL,–,–,1 to 10 µg/mL,1 to 10 µg/mL,–,–,–,10 to 100 µg/mL,1 to 10 µg/mL,–,–,10 to 100 µg/mL
"CCn1c(=O)c2ncoc2c2ccc(-c3cc(F)c(N)cc3F)c(C)c21 [Compound 2, 7-(4-amino-2,5-difluoro-phenyl)-5-ethyl-6-methyl-oxazolo[4,5-c]quinolin-4-one]",> 100 µg/mL,–,–,1 to 10 µg/mL,1 to 10 µg/mL,–,–,–,10 to 100 µg/mL,> 100 µg/mL,1 to 10 µg/mL,10 to 100 µg/mL,1 to 10 µg/mL
"Cc1c(-c2ccc(N)c(F)c2)ccc2c3ocnc3c(=O)n(C3CC3)c12 [Compound 38, 7-(4-amino-3-fluorophenyl)-5-cyclopropyl-6-methyl-oxazolo[4,5-c]quinolin-4-one]",> 100 µg/mL,–,–,< 1 µg/mL,< 1 µg/mL,–,–,–,< 1 µg/mL,1 to 10 µg/mL,1 to 10 µg/mL,> 100 µg/mL,< 1 µg/mL
"Cc1nc2c(=O)n(C3CC3)c3cc(N4CC[C@H](CN)C4)c(F)cc3c2o1 [Compound 52, 7-[(3R)-3-(aminomethyl)pyrrolidin-1-yl]-5-cyclopropyl-8-fluoro-2-methyl-oxazolo[4,5-c]quinolin-4-one]",10 to 100 µg/mL,1 to 10 µg/mL,–,1 to 10 µg/mL,1 to 10 µg/mL,< 1 µg/mL,1 to 10 µg/mL,1 to 10 µg/mL,1 to 10 µg/mL,1 to 10 µg/mL,1 to 10 µg/mL,10 to 100 µg/mL,1 to 10 µg/mL

# The next lines start with results.
MIC [1],MIC (S. aureus NRS1 MRSA),MIC [3],"MIC [4, 12]","MIC [4, 13]",MIC [5],MIC [6],MIC [7],MIC [8],MIC [9],MIC [10],Structure (SMILES),IC50 [2],MIC [11]
> 100 µg/mL,1 to 10 µg/mL,< 1 µg/mL,< 1 µg/mL,< 1 µg/mL,1 to 10 µg/mL,1 to 10 µg/mL,1 to 10 µg/mL,1 to 10 µg/mL,> 100 µg/mL,1 to 10 µg/mL,Cc1nc2c(=O)n(C3CC3)c3c(C)c(-c4ccc(C(N)=O)cc4)ccc3c2o1 [Compound 26],> 100 µg/mL,–
> 100 µg/mL,–,1 to 10 µg/mL,< 1 µg/mL,< 1 µg/mL,< 1 µg/mL,< 1 µg/mL,< 1 µg/mL,< 1 µg/mL,1 to 10 µg/mL,1 to 10 µg/mL,"Nc1cc(F)c(-c2cc3c(cc2F)c2ocnc2c(=O)n3C2CC2)cc1F [Compound 69, 7-(4-amino-2,5-difluoro-phenyl)-5-cyclopropyl-8-fluoro-oxazolo[4,5-c]quinolin-4-one]",–,–
10 to 100 µg/mL,1 to 10 µg/mL,–,1 to 10 µg/mL,1 to 10 µg/mL,1 to 10 µg/mL,1 to 10 µg/mL,1 to 10 µg/mL,1 to 10 µg/mL,10 to 100 µg/mL,1 to 10 µg/mL,"C[C@H]1COc2c(-c3ccc(C(N)=O)cc3)ccc3c4ocnc4c(=O)n1c23 [Compound 96, 4-[(2S)-2-methyl-15-oxo-4,11-dioxa-1,13-diazatetracyclo[7.6.1.0^5,^16.0^10,^14]hexadeca-5(16),6,8,10(14),12-pentaen-6-yl]benzamide]",10 to 100 µg/mL,–
10 to 100 µg/mL,10 to 100 µg/mL,–,1 to 10 µg/mL,1 to 10 µg/mL,1 to 10 µg/mL,> 100 µg/mL,10 to 100 µg/mL,1 to 10 µg/mL,1 to 10 µg/mL,10 to 100 µg/mL,"Cc1nc2c(=O)n(C3CC3)c3cc(N4CCC(N)CC4)c(F)cc3c2o1 [Compound 49, 7-(4-amino-1-piperidyl)-5-cyclopropyl-8-fluoro-2-methyl-oxazolo[4,5-c]quinolin-4-one]",10 to 100 µg/mL,–
> 100 µg/mL,< 1 µg/mL,1 to 10 µg/mL,< 1 µg/mL,< 1 µg/mL,< 1 µg/mL,< 1 µg/mL,< 1 µg/mL,1 to 10 µg/mL,< 1 µg/mL,< 1 µg/mL,"Cc1c(-c2ccc3[nH]ncc3c2)ccc2c3scnc3c(=O)n(C3CC3)c12 [Compound 109, 5-Cyclopropyl-7-(1H-indazol-5-yl)-6-methyl-thiazolo[4,5-c]quinolin-4-one]",–,–
–,1 to 10 µg/mL,–,< 1 µg/mL,< 1 µg/mL,< 1 µg/mL,1 to 10 µg/mL,1 to 10 µg/mL,< 1 µg/mL,1 to 10 µg/mL,< 1 µg/mL,"Cc1c(-c2cc(F)c(N)cc2F)ccc2c3oc(CO)nc3c(=O)n(C3CC3)c12 [Compound 99, 7-(4-amino-2,5-difluorophenyl)-5-cyclopropyl-2-(hydroxymethyl)-6-methyloxazolo[4,5-c]quinolin-4-one]",–,–
10 to 100 µg/mL,1 to 10 µg/mL,–,< 1 µg/mL,< 1 µg/mL,< 1 µg/mL,10 to 100 µg/mL,1 to 10 µg/mL,1 to 10 µg/mL,1 to 10 µg/mL,1 to 10 µg/mL,"Cc1nc2c(=O)n(C3CC3)c3cc(-c4ccc(CN)c(F)c4)c(F)cc3c2o1 [Compound 76, 7-[4-(aminomethyl)-3-fluoro-phenyl]-5-cyclopropyl-8-fluoro-2-methyl-oxazolo[4,5-c]quinolin-4-one]",–,–
> 100 µg/mL,1 to 10 µg/mL,–,1 to 10 µg/mL,1 to 10 µg/mL,1 to 10 µg/mL,1 to 10 µg/mL,1 to 10 µg/mL,1 to 10 µg/mL,> 100 µg/mL,1 to 10 µg/mL,"CCOC(=O)CNC(=O)c1ccc(-c2ccc3c4ocnc4c(=O)n(C4CC4)c3c2C)cc1 [Compound 30, ethyl-2-[{4-(5-cyclopropyl-6-methyl-4-oxo-oxazolo[4,5-c]quinolin-7-yl)benzoyl}amino]acetate]",10 to 100 µg/mL,–
> 100 µg/mL,1 to 10 µg/mL,< 1 µg/mL,< 1 µg/mL,< 1 µg/mL,< 1 µg/mL,10 to 100 µg/mL,10 to 100 µg/mL,1 to 10 µg/mL,1 to 10 µg/mL,< 1 µg/mL,"Cc1nc2c(=O)n(C3CC3)c3c(C)c(-c4ccc5cn[nH]c5c4)ccc3c2o1 [Compound 27, 5-cyclopropyl-7-(l H-indazol-6-yl)-2,6-dimethyl-oxazolo[4,5-c]quinolin-4-one]",10 to 100 µg/mL,–

# Reference: patent publication US10385065B2, “Antibacterial compounds” (priority 2014, dated 2019)
